15 compounds from patent US12084472B2 (Ardelyx, Inc., priority 2015, dated 2024) can be followed below.

The target of one assay is T1, human TGR5 (Homo sapiens, UniProt Q8TDU6).
T1 construct: expressed in transfected cells; host or cells: HEK293
T1 sequence (Q8TDU6 1-330): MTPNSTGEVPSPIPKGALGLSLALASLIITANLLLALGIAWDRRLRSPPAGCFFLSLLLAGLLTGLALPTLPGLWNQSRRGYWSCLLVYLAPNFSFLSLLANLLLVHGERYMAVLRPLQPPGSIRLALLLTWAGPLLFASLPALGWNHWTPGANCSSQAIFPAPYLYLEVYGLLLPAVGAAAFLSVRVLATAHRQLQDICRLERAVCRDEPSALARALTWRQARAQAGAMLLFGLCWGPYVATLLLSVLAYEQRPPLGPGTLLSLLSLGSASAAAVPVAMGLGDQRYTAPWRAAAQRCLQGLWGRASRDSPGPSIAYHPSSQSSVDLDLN
As to the kind of experiment: Cell-based TGR5 assay (cAMP generation, HTRF). The settings on record: HEK293 cells stably transfected with human TGR5; cAMP by HTRF; 30 minutes at 37° C. Summed up:
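First, compounds in 3-fold serial dilution were placed in HBSS with 10 mM HEPES pH 7.4 and 0.5 mM IBMX. Next, human TGR5-expressing HEK293 cells were added and incubated 30 min at 37° C. Finally, cAMP was detected by HTRF and pEC50 derived by logistic fitting.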
For the compound `CN(CCCCNC(=O)NCCOCCOCCNC(=O)NCCOCCOCCNC(=O)NCCCCN(C)S(=O)(=O)c1ccc(Cl)c(COC2(c3cnccc3-c3ccccc3OC3CC3)CC2)c1)S(=O)(=O)c1ccc(Cl)c(COC2(c3cnccc3-c3ccccc3OC3CC3)CC2)c1` [Compound I-737, 3-(4-[N-methyl[4-chloro-3-([1-[4-(2-cyclopropoxyphenyl)pyridin-3-yl]cyclopropoxy]methyl)benzene]sulfonamido]butyl)-1-[2-(2-[2-[([2-[2-(2-[[(4-[N-methyl[4-chloro-3-([1-[4-(2-cyclopropoxyphenyl)pyridin-3-yl]cyclopropoxy]methyl)benzene]sulfonamido]butyl)carbamoyl]amino]ethoxy)ethoxy]ethyl]carbamoyl)amino]ethoxy]ethoxy)ethyl]urea], the “pEC50 Human TGR5” value is “B (B is a pEC50 of 6 to 6.9)”.

Staying with this assay, now noted: HEK293 cells stably transfected with human TGR5; cAMP by HTRF; 30 minutes at 37° C.; read-out: pEC50 Human TGR5 (converted).
Regarding `CC(C)N(CCCCNC(=O)NC[C@H](O)[C@@H](O)[C@H](O)[C@H](O)CO)S(=O)(=O)c1ccc(Cl)c(CNC2(c3cnccc3-c3ccccc3OC3CC3)CC2)c1` [Compound I-751, 4-chloro-3-(((1-(4-(2-cyclopropoxyphenyl)pyridin-3-yl)cyclopropyl)amino)methyl)-N-isopropyl-N-(4-(3-((2S,3R,4R,5R)-2,3,4,5,6-pentahydroxyhexyl)ureido)butyl) benzenesulfonamide], the EC50 was less than 100 nM.
For the compound `Cc1ccc(C(C)CCCC(=O)N(CCN(C)C)C[C@H](O)[C@@H](O)[C@H](O)[C@H](O)CO)cc1CNC1(c2cnccc2-c2ccccc2OC2CC2)CC1` (stereo partly drawn) [Compound I-361, 5-{3-[({1-[4-(2-cyclopropoxyphenyl)pyridin-3-yl]cyclopropyl}amino)methyl]-4-methylphenyl}-N-[2-(dimethylamino)ethyl]-N-[(2S,3R,4R,5R)-2,3,4,5,6-pentahydroxyhexyl]hexanamide], the EC50 is 126 to 1000 nM.
Consider `Cc1ccc(C(C)CCCC(=O)N(Cc2ccccc2)C[C@H](O)[C@@H](O)[C@H](O)[C@H](O)CO)cc1CNC1(c2cnccc2-c2ccccc2OC2CC2)CC1` (stereo partly drawn) [Compound I-259, N-benzyl-5-(3-(((1-(4-(2-cyclopropoxyphenyl)pyridin-3-yl)cyclopropyl)amino)methyl)-4-methylphenyl)-N-((2S,3R,4R,5R)-2,3,4,5,6-pentahydroxyhexyl) hexanamide], for which the EC50 was less than 100 nM.
The same measure, in the same setting: then `O=C(NCCCCSc1ccc(Cl)c(COC2(c3cnccc3-c3ccccc3OC3CC3)CC2)c1)N[C@H]1CC[C@H](NC(=O)NC[C@H](O)[C@@H](O)[C@H](O)[C@H](O)CO)CC1` [Compound I-632, 1-(4-{[4-chloro-3-({1-[4-(2-cyclopropoxyphenyl)pyridin-3-yl]cyclopropoxy}methyl)phenyl]sulfanyl}butyl)-3-[(1r,4r)-4-({[(2S,3R,4R,5R)-2,3,4,5,6-pentahydroxyhexyl]carbamoyl}amino)cyclohexyl]urea], with less than 100 nM.
In the case of `CCNC(=O)[C@H](CCCCNS(=O)(=O)c1ccc(Cl)c(COC2(c3cnccc3-c3ccccc3OC3CC3)CC2)c1)NC(=O)NC[C@H](O)[C@@H](O)[C@H](O)[C@H](O)CO` [Compound I-487], the EC50 is 126 to 1000 nM.
Same read-out and setting: the result for `O=C(CCS(=O)(=O)c1ccccc1)N(CCCCc1cc(Cl)c(COC2(c3cnccc3-c3ccccc3OC3CC3)CC2)cc1Cl)C[C@H](O)[C@@H](O)[C@H](O)[C@H](O)CO` [Compound I-70, 3-(benzenesulfonyl)-N-{4-[2,5-dichloro-4-({1-[4-(2-cyclopropoxyphenyl)pyridin-3-yl]cyclopropoxy}methyl)phenyl]butyl}-N-[(2S,3R,4R,5R)-2,3,4,5,6-pentahydroxyhexyl]propanamide] reads 126 to 1000 nM; that for `COCCN(CCCCNC(=O)N[C@@H](CO)[C@@H](O)[C@H](O)[C@H](O)CO)S(=O)(=O)c1ccc(Cl)c(COC2(c3cnccc3-c3ccccc3OC3CC3)CC2)c1` [Compound I-416, 1-{4-[N-(2-methoxyethyl)4-chloro-3-({1-[4-(2-cyclopropoxyphenyl)pyridin-3-yl]cyclopropoxy}methyl)benzenesulfonamido]butyl}-3-[(2S,3R,4S,5R)-1,3,4,5,6-pentahydroxyhexan-2-yl]urea], less than 100 nM.
Same read-out and setting: then `CS(=O)(=O)NCCCN(CCCCSc1ccc(Cl)c(COC2(c3cnccc3-c3ccccc3OC3CC3)CC2)c1)C(=O)[C@@H](O)[C@@H](O)[C@H](O)[C@@H](O)CO` [Compound I-577, (2S,3S,4R,5S)-N-(4-{[4-chloro-3-({1-[4-(2-cyclopropoxyphenyl)pyridin-3-yl]cyclopropoxy}methyl)phenyl]sulfanyl}butyl)-2,3,4,5,6-pentahydroxy-N-(3-methanesulfonamidopropyl) hexanamide], with less than 100 nM; and `CN(CCCCNC(=O)[C@@H](O)[C@@H](O)[C@H](O)[C@@H](O)CO)S(=O)(=O)c1ccc(Cl)c(COC2(c3cnccc3-c3ccccc3OC3CC3)CC2)c1` [Compound I-458, (2S,3S,4R,5S)-2,3,4,5,6-pentahydroxy-N-{4-[N-methyl4-chloro-3-({1-[4-(2-cyclopropoxyphenyl)pyridin-3-yl]cyclopropoxy}methyl)benzenesulfonamido]butyl}hexanamide], with less than 100 nM; and `O=C([C@@H](O)[C@@H](O)[C@H](O)[C@@H](O)CO)N(CCCCCSc1ccc(Cl)c(CNC2(c3cnccc3-c3ccccc3OC3CC3)CC2)c1)CCOCCO` [Compound I-598, (2S,3S,4R,5S)-N-[5-({4-chloro-3-[({1-[4-(2-cyclopropoxyphenyl)pyridin-3-yl]cyclopropyl}amino)methyl]phenyl}sulfanyl)pentyl]-2,3,4,5,6-pentahydroxy-N-[2-(2-hydroxyethoxy)ethyl]hexanamide], with less than 100 nM.
Same read-out and setting: then `O=C(NCCCCCSc1ccc(Cl)c(CNC2(c3cnccc3-c3ccccc3OC3CC3)CC2)c1)NC[C@H](O)[C@@H](O)[C@H](O)[C@H](O)CO` [Compound I-494, 1-[5-([4-Chloro-3-[([1-[4-(2-cyclopropoxyphenyl)pyridin-3-yl]cyclopropyl]amino)methyl]phenyl]sulfanyl)pentyl]-3-[(2S,3R,4R,5R)-2,3,4,5,6-pentahydroxyhexyl]urea], with less than 100 nM.
Regarding `O=C(NC[C@H](O)[C@@H](O)[C@H](O)[C@H](O)CO)NC1CCN(S(=O)(=O)c2ccc(Cl)c(COC3(c4cnccc4-c4ccccc4OC4CC4)CC3)c2)C1` (stereo partly drawn) [Compound I-429, 1-{l-[4-chloro-3-({1-[4-(2-cyclopropoxyphenyl)pyridin-3-yl]cyclopropoxy}methyl)benzenesulfonyl]pyrrolidin-3-yl}-3-[(2S,3R,4R,5R)-2,3,4,5,6-pentahydroxyhexyl]urea], the EC50 is 126 to 1000 nM.
Same read-out and setting: the result for `Cc1ccc(SCCCCN(CCCCO)C(=O)[C@@H](O)[C@@H](O)[C@H](O)[C@@H](O)CO)cc1COC1(c2cnccc2-c2ccccc2OC2CC2)CC1` [Compound I-541, (2S,3S,4R,5S)-N-(4-{[3-({1-[4-(2-cyclopropoxyphenyl)pyridin-3-yl]cyclopropoxy}methyl)-4-methylphenyl]sulfanyl}butyl)-2,3,4,5,6-pentahydroxy-N-(4-hydroxybutyl)hexanamide] reads 126 to 1000 nM; that for `CSc1ccccc1-c1ccncc1C1(OCc2cc(Cl)ccc2Cl)CC1` [Compound I-739, 3-(1-((2,5-dichlorobenzyl)oxy)cyclopropyl)-4-(2-(methylthio)phenyl)pyridine], 126 to 1000 nM.
